How the values were obtained:
[1] = test system: redlegged earth mite (H. destructor; RLEM); test: Field trial in canola, pre- or post-emergent control of RLEM (Example 5); type: in vivo, Halotydeus destructor
Procedure: A field trial was conducted in canola cv. Garrison, to evaluate fenpyroximate for control of redlegged earth mite (H. destructor; RLEM) as a pre- or post-emergent application. The trial was located at Beverley, Western Australia (−32.2248085, 117.0268493). The canola was sown on 13th June 2023. […] All treatments were applied using a hand boom fitted with flat fan nozzles in a spray volume of 100 L/ha.
The density of RLEM was assessed 33 days after the second application timing by counting the number of mites per plant.
All data was statistically analyzed using analysis of variance and Fisher's protected least significant different test (Fishers LSD). The level of significance for all tests was P<0.05.

[2] = test system: redlegged earth mite (H. destructor; RLEM); test: whole plant or invertebrate
Procedure: On the 14th of May 2022, H. destructor were collected from capeweed (Arctotheca calendula) in South Morang, Victoria (−37.625, 145.110), a site with no known history of insecticide application. Mites were collected via suction using a Stihl SH55 blower vacuum, placed in plastic containers with paper towel and vegetation, and transported back to the laboratory, where they were stored at 4° C. until testing.
Serial dilutions were prepared for each insecticide (Table 1), with the addition of a non-ionic surfactant (Tween 20) at 0.01% to aid the spread of the insecticide and ensure even coating. […] Nine concentrations of pyridaben ranging from the proposed field rate of 1480 mL diluted in 100 L of water (1998 mg a.i./L) to 1×10^−5 were serially diluted and tested along with a water control. Eight concentrations of omethoate, ranging from 10 times the field rate of 100 mL diluted in 100 L of water (290 mg a.i./L) to 1×10^−5, were tested along with a water control. Seven concentrations of bifenthrin, ranging from 10 times the field rate of 40 mL diluted in 100 L of water (100 mg a.i./L) to 1×10^−5, were tested along with a water control. For each insecticide concentration tested, approximately 10 mL of solution was poured into a 15 mL plastic vial and swirled to ensure a complete coating, with excess liquid removed. Six vials were coated per concentration and were left to dry overnight. Control vials were treated in the same way, except water (with the addition of 0.01% Tween) was used.
(§1) Approximately eight individual H. destructor were then placed into each vial along with 2-3 leaves of common vetch (Vicia sativa), which provided food and humidity. Vials were then sealed with a screw lid and placed in a controlled temperature cabinet at 18° C. After 24-hours exposure, mites were scored as alive (moving freely), incapacitated (inhibited movement), or dead (no movement over a 5 second period).
Dose-response curves were generated by plotting percentage mortality against log concentration. […] Logistic regression is well suited for the analysis of binary response data (e.g., dead/alive). All analyses were conducted using R version 3.3.1 (R Development Core Team 2022).

[3] = test system: insecticide-resistant population of redlegged earth mite (H. destructor; RLEM); test: whole plant or invertebrate; conditions: Halotydeus destructor, 24 h, read-out: % RLEM mortality, Resistant
Procedure: (§2) The insecticide-susceptible H. destructor population tested in this bioassay was collected from burr medic (Medicago polymorpha) and barley grass (Hordeum leporinum) in Moulamein, NSW (−35.102, 144.026), a site with no known history of insecticide application. […] Mites were collected via suction using a Stihl SH55 blower vacuum, placed in plastic containers with paper towel and vegetation, and transported back to the laboratory, where they were stored at 4° C. until testing.
(§3) Serial dilutions were prepared for each insecticide (Table 9), with the addition of a non-ionic surfactant (Tween 20) at 0.01% to aid the spread of the insecticide and ensure even coating. […] Nine concentrations of bifenthrin were tested, ranging from 1×10^−5 to 10 times the field rate of 40 mL diluted in 100 L of water (100 mg a.i./L). Seven concentrations of omethoate were tested, ranging from 1×10^−5 to 10 times the field rate of 100 mL in 100 L of water (290 mg a.i./L).
as §1, with “Six vials were coated per concentration and were left to dry overnight. Control vials were treated in the same way, except water (with the addition of 0.01% Tween) was used. The next day,” for “Approximately”
(§4) Dose-response curves were generated by plotting percentage mortality against log concentration. A series of logistic models were used to quantify the sensitivity of H. destructor to each chemical and to test whether any differences in sensitivity were present between the two populations. Logistic regression is well suited for the analysis of binary response data (e.g., dead/alive). Each model included chemical concentration and H. destructor population as fixed-effect predictors, which allowed testing for whether populations had average differences in mortality (i.e., model intercept) via F tests. It was then determined if populations had differences in mortality that were dependent on chemical concentration (i.e., differences in regression slopes) by comparing the inclusion of a population×concentration predictor (i.e., allowing slopes to vary between populations). […] The resulting LC50 values were used to quantify the level of insecticide resistance (resistance ratios) relative to the known insecticide-susceptible population. All analyses were conducted using R version 4.3.1 (R Development Core Team 2023).

[4] = test system: insecticide-susceptible population of redlegged earth mite (H. destructor; RLEM); test: whole plant or invertebrate; conditions: Halotydeus destructor, 24 h, read-out: % RLEM mortality, Susceptible
Procedure: as §2, §3
as §1, with “Six vials were coated per concentration and were left to dry overnight. Control vials were treated in the same way, except water (with the addition of 0.01% Tween) was used. The next day,” for “Approximately”
as §4

[5] = Halotydeus destructor, 24 h, read-out: % RLEM mortality

With `Cc1nn(C)c(Oc2ccccc2)c1C=NOCc1ccc(C(=O)OC(C)(C)C)cc1` [Fenpyroximate] the “% Control (33 DAA2)” value ([1]; application timing A (post-sow pre-emergent), product rate 1000 mL/ha) was 67%, the “% Control (33 DAA2)” value ([1]; application timing A (post-sow pre-emergent), product rate 2000 mL/ha) was 61% and the “% Control (33 DAA2)” value ([1]; application timing B (early post-emergent, 1 to 2 leaf canola), product rate 1000 mL/ha) was 63%. The “% Control (33 DAA2)” value ([1]; application timing B (early post-emergent, 1 to 2 leaf canola), product rate 2000 mL/ha) was 68%, the “concentrations at which mite mortality was observed” value ([2]; 24 hours exposure) was “greater than 50 mg a.i./L” and the mortality at 0.01 µg/mL [2, 5] was 0%. It also gave a mortality at 0.1 µg/mL [2, 5] of 0%, a mortality at 1 µg/mL [2, 5] of 0% and a mortality at 10 µg/mL [2, 5] of 0%. For the same compound, the mortality at 30 µg/mL [2, 5] was 0%, the mortality at 50 µg/mL [2, 5] was 6% and the mortality at 100 µg/mL [2, 5] was 30.5%. It also gave a mortality at 300 µg/mL [2, 5] of 93.8%, a mortality at 500 µg/mL [2, 5] of 100% and a mortality at 1000 µg/mL [2, 5] of 98.7%. For the same compound, the “control of RLEM” value ([2]; concentration of 300 g a.i./L (as printed in text)) was 93.8%, the “control of RLEM” value ([2]; concentration of 500 g a.i./L (as printed in text)) was 100% and the “efficacy against RLEM (in words)” value ([2]; laboratory bioassay, 24 hours exposure) was “highly efficacious”. For the same compound, the mortality at 0.1 µg/mL [3] was 4.6%, the mortality at 10 µg/mL [3] was 11.2% and the mortality at 100 µg/mL [3] was 45.7%. The mortality at 300 µg/mL [3] was 86.3%, the mortality at 1000 µg/mL [3] was 100% and the mortality at 10000 µg/mL [3] was 100%. For the same compound, the mortality at 0.1 µg/mL [4] was 6.9%, the mortality at 1 µg/mL [4] was 12.6% and the mortality at 10 µg/mL [4] was 11.3%. The mortality at 100 µg/mL [4] was 47.3%, the mortality at 300 µg/mL [4] was 92.2% and the mortality at 1000 µg/mL [4] was 98.5%. The mortality at 10000 µg/mL [4] was 100%.
